According to US4174402A, “Method for the prophylaxis of SRS-A-induced symptoms” (priority 1978, dated 1979):
Like-named read-outs stand apart in the source and are kept apart here.

Columns and labels:
serotonin [1] = test: Test Procedure 6: serotonin-induced bronchoconstriction in anesthetized guinea pigs; format: in vivo, guinea pig; conditions: iv 5.0 mg/kg; P 0.01
Procedure: Guinea pigs, weighing 275-340 g, were anesthetized and prepared for measurements of resistance to pulmonary inflation using a slightly modified Konzett-Rossler method (see Test Procedure 2). All guinea pigs received 0.1 mg/kg of propranolol iv and 5 minutes later, 50 mcg/kg of serotonin (creatinine complex) iv. Compound b or cyproheptadine were administered iv just before the injection of propranolol at 50 or 5 mg/kg, respectively. Compound b was prepared as a 5% solution in 5% N-methylglucamine and cyproheptadine as a 0.25% aqueous solution.

bradykinin [2] = test system: bradykinin
Procedure: Antagonism of bradykinin-induced bronchoconstriction in guinea pigs was determined by measuring increases in resistance to artificial pulmonary inflation (Konzett-Rossler preparation). […] Due to large variations in bronchoconstricting responses among individual guinea pigs, each guinea pig serves as its own control and was challenged with bradykinin twice. The second response to bradykinin was expressed as percent of the first response to bradykinin. […] All guinea pigs having a first bradykinin response of less than 12 mm Hg were rejected as poor responders. […] In order to augment the bronchoconstrictor response, each guinea pig received 100 mcg propranolol/kg, iv, 5 minutes before the first injection of bradykinin (30 mcg/kg, iv). […] Five minutes after the injection of a test compound the guinea pigs received the second injection of bradykinin and the peak of the response determined. The effects of both test compounds were expressed as % inhibition of bradykinin-induced increase in bronchial resistance to forced inflation, as compared to the levels of bronchial resistance following iv administration of their respective solvent controls.

SRS-A [3] = test: Test Procedure 1: antagonism of SRS-A-induced bronchoconstriction in unanesthetized guinea pigs; format: in vivo, guinea pig; conditions: for ED50: Cavia porcellus, po, read-out: AED50; for ED50 / Potency (Phenylbutazone = 1) (95% confidence limits): 1 hour before SRS-A; for Potency (Phenylbutazone = 1) (95% confidence limits): p.o.
Procedure: The test compounds were administered orally to four guinea pigs/group 1 hour before the SRS-A challenge. The test compounds were prepared as suspensions in 1% gum tragacanth. Bronchoconstriction was graded 1+ to 3+ according to severity (1+ denoted restlessness and slight thoracic dyspnea, 2+ denoted moderate thoracic dyspnea and 3+ denoted convulsive dyspnea, regardless of whether the guinea pig died of asphyxiation or recovered).

SRS-A [4] = test: Test Procedure 2: inhibition of SRS-A-induced bronchoconstriction in anesthetized guinea pigs (Konzett-Rossler); format: in vivo, guinea pig; conditions: for inhibition of SRS-A-induced increases in resistance to inflation: intravenous
Description: SRS-A was harvested as described in Test Procedure 1 described hereinabove. A slightly modified Konzett-Rossler preparation [Arch. […] Guinea pigs weighing 350 to 450 g were anesthetized ip with 1.5 g/kg urethane. The jugular vein and trachea were cannulated and the guinea pigs were artificially respired at a rate of 40 strokes/minute. […] A side arm of the inflationary air cannula was connected to a pressure transducer and resistance to pulmonary inflation continuously recorded. […] Studies with SRS-A commenced after each guinea pig had attained maximum bronchoconstrictor response to histamine. […] The effects of the test compounds were studied by measuring SRS-A-induced bronchoconstriction side-by-side in two guinea pigs, one medicated and one control. Subsequent medicated/control pairs were alternated on two respiratory pumps. In this manner, the gradual decomposition of SRS-A and differences between the two pump/recorder systems, if any, were controlled. The dose (volume) of each sample of SRS-A was adjusted in each pair to keep the peaks of increases in bronchial resistance in control guinea pigs within 13 to 40 mmHg. Bronchoconstriction following injection of SRS-A was measured two ways; as the peak increase in resistance to inflation and, in view of the occasional irregular bronchoconstriction response curves following injection of SRS-A, as the sum of increases in bronchoconstriction over 10 minutes (pressure/time units). Pressure/time units were calculated by measuring the area under the curve of inflationary resistance where ordinates were set at 10 mm of pen excursion/10 mm pressure Hg and the abscissas were set at 15 mm of paper travel/minute. […] SRS-A-induced bronchoconstriction (increase in resistance) was calculated as the area under the curve and over the normal base line of resistance to inflation. […] The effects of the test compounds upon SRS-A-induced bronchoconstriction were expressed as ratios of the peaks and as ratios of the pressure/time units between the paired medicated and control guinea pigs. The consistency of paired responses to SRS-A in nonmedicated guinea pigs was determined in the same manner, by alternating the ratios of the results of guinea pigs on pumps one and two. […] SRS-A was injected 5 minutes after these latter injections. Compound b was prepared as a solution in 2% N-methylglucamine and used within 3 hours. […] Control guinea pigs received injections of the respective solvent vehicles. In order to compare the activities of compound b following iv and po routes of administration, compound b was also administered orally. […] Control guinea pigs received 2% N-methylglucamine. Fifteen minutes later, the guinea pigs were anesthetized, cannulated, and prepared for injections of SRS-A as described. The procedure was timed so that SRS-A was injected 1 hour after the oral administration of compound b. In a separate experiment, using the same methodology, the duration anti-SRS-A activity of compound b was determined after oral administration. Compound b was finely ground in a tissue homogenizer and prepared as a suspension in 0.5% gum tragacanth. A dose of 10 mg/kg was administered and anti-SRS-A effect studied at 1, 4 and 7 hr postmedication. The ratios of peak increases in intratracheal pressure between paired medicated and control guinea pigs was used to calculate percent inhibition.

SRS-A [5] = test: Test Procedure 3: SRS-A-induced increase in resistance to pulmonary inflation in anesthetized cats; format: in vivo, cat
Procedure: The trachea of each cat was cannulated, and the cats were artificially respired at 15 strokes/minute with a stroke volume of 22 ml/kg. A side-arm of the intratracheal cannula was connected to a Statham transducer, and the intratracheal pressure was recorded continuously on a polygraph. One femoral vein was cannulated in all cats receiving intravenous administration of drugs. In addition, most of the cats were cannulated through the femoral artery; this cannula was attached to another Statham transducer, and the blood pressure of these cats recorded. All cats received 1.0 mg/kg of propranolol and 0.2 mg/kg of thenyldiamine intravenously 3 minutes before iv injection of SRS-A. SRS-A was obtained from rat peritoneal cavities as described previously in Test Procedure 1. Each pool of rat ip fluid containing SRS-A was dose-ranged and a dose selected that was estimated to cause an average increase in intrapulmonary resistance to inflation in control cats by 4-6 mmHg. Test dose volumes ranged from 1.0 to 2.0 ml/kg, iv. […] Both test compounds and the sodium hydroxide vehicle were injected iv 5 minutes before the injections of SRS-A (2 minutes before the injection of propranolol and thenyldiamine).

SRS-A [6] = test: as above; format: in vivo, cat; remark: listed apart in the source
SRS-A [7] = conditions: guinea pigs; cited from earlier work
bradykinin [8] = conditions: guinea pigs; cited from earlier work
serotonin [9] = conditions: guinea pig, in vivo; cited from earlier work
acetylcholine [10] = conditions: guinea pig, in vivo; cited from earlier work
acetylcholine [11] = test: Test Procedure 7: acetylcholine-induced bronchoconstriction in anesthetized guinea pigs; format: in vivo, guinea pig; conditions: 100 mg/kg p.o.
Procedure: Guinea pigs, weighing 250-350 g were anesthetized with 1.5 g/kg i.p. of urethane and prepared for measurements of resistance to pulmonary inflation using a slightly modified Konzett-Rossler preparation (see Test Procedure 2). Histamine phosphate (5 μg/kg as base) was injected four times at 5 minute intervals in order to ascertain that the maximum bronchoconstrictor responsiveness has been obtained. Acetylcholine was injected intravenously at […] 5 minutes following the last injection of histamine and the increase in intratracheal pressure was recorded. Compound b or aminophylline (100 mg/kg p.o.) or the control vehicle were administered to five guinea pigs each, 1 hour before the injection of acetylcholine (1/2 hour before the anesthesia).

CN1CCC(=C2c3ccccc3C=Cc3ccccc32)CC1 [Cyproheptadine, cyproheptadine, reference compound]
Increase in Resistance (mm Hg) (serotonin [1]): 5 ± 1 mm Hg
Inhibition % (serotonin [1]): 89%

CCCCC1C(=O)N(c2ccccc2)N(c2ccccc2)C1=O [Na Phenylbutazone]
% Inhibition (bradykinin [2]; iv 1.0 mg/kg): 20%
Average Increase In Bronchial Resistance (2nd Response in % of 1st Response ± S.E.) (bradykinin [2]; iv 1.0 mg/kg): 64 ± 12%
% Inhibition (bradykinin [2]; iv 3.3 mg/kg): 50%
Average Increase In Bronchial Resistance (2nd Response in % of 1st Response ± S.E.) (bradykinin [2]; iv 3.3 mg/kg): 40 ± 9%
% Inhibition (bradykinin [2]; iv 10.0 mg/kg): 56%
Average Increase In Bronchial Resistance (2nd Response in % of 1st Response ± S.E.) (bradykinin [2]; iv 10.0 mg/kg): 35 ± 11%
% Inhibition (bradykinin [2]; iv 33.0 mg/kg): 50%
Average Increase In Bronchial Resistance (2nd Response in % of 1st Response ± S.E.) (bradykinin [2]; iv 33.0 mg/kg): 40 ± 7%

Cc1ccc2c(c1)c1c(n2C(=O)c2ccccc2)CCCC1C(=O)O (stereo not shown) [f, 9-benzoyl-6-methyl-1,2,3,4-tetrahydrocarbazole-4-carboxylic acid]
ED50 (SRS-A [3]): 1.7 mg/kg
Potency (Phenylbutazone = 1) (95% confidence limits) (SRS-A [3]): 6.7 (3.2-16)

CCCCC1C(=O)N(c2ccccc2)N(c2ccccc2)C1=O [Phenylbutazone, phenylbutazone, reference compound]
Incidence of Severe Bronchospasms, % (SRS-A [3]; 1.6 mg/kg p.o.): 62%
Incidence of Severe Bronchospasms, No. Bronchosp./No. Tested (SRS-A [3]; 1.6 mg/kg p.o.): 47/77
Incidence of Severe Bronchospasms, % (SRS-A [3]; 6.2 mg/kg p.o.): 34%
Incidence of Severe Bronchospasms, No. Bronchosp./No. Tested (SRS-A [3]; 6.2 mg/kg p.o.): 29/86
Incidence of Severe Bronchospasms, % (SRS-A [3]; 25 mg/kg p.o.): 15%
Incidence of Severe Bronchospasms, No. Bronchosp./No. Tested (SRS-A [3]; 25 mg/kg p.o.): 21/147
Incidence of Severe Bronchospasms, % (SRS-A [3]; 100 mg/kg p.o.): 4%
Incidence of Severe Bronchospasms, No. Bronchosp./No. Tested (SRS-A [3]; 100 mg/kg p.o.): 2/46
% Inhibition (peak increase in resistance) (SRS-A [4]; i.v. 1.0 mg/kg): 0%
% Inhibition (sum of increase in resistance over 10 min) (SRS-A [4]; i.v. 1.0 mg/kg): 0%
% Inhibition (peak increase in resistance) (SRS-A [4]; i.v. 3.3 mg/kg): 59%
% Inhibition (sum of increase in resistance over 10 min) (SRS-A [4]; i.v. 3.3 mg/kg): 56%
% Inhibition (peak increase in resistance) (SRS-A [4]; i.v. 10 mg/kg): 72%
% Inhibition (sum of increase in resistance over 10 min) (SRS-A [4]; i.v. 10 mg/kg): 81%
% Inhibition (peak increase in resistance) (SRS-A [4]; i.v. 33 mg/kg): 89%
% Inhibition (sum of increase in resistance over 10 min) (SRS-A [4]; i.v. 33 mg/kg): 90%
inhibition of SRS-A-induced increases in resistance to inflation (SRS-A [4]): inhibited SRS-A-induced increases in resistance to inflation in a dose-related manner
inhibition of SRS-A-induced increases in resistance to inflation (SRS-A [4]; 10 and 33 mg/kg): nearly complete inhibition
% Inhibition (SRS-A [5]; intravenous 10.1 mg/kg): 21%
Max. Increase in Resistance to Pulm. Inflation, mm Hg ± S.E. (SRS-A [5]; intravenous 10.1 mg/kg): 4.7 ± 1.5 mm Hg
inhibition of SRS-A-induced increase in resistance to inflation (SRS-A [5]; intravenous 33 mg/kg): complete inhibition
% Inhibition (SRS-A [5]; intravenous 33.0 mg/kg): 100%
inhibition of bradykinin-induced bronchoconstriction (bradykinin [2]; iv 33 mg/kg, remaining five guinea pigs): further dose-related inhibition
inhibition of bradykinin-induced increase in bronchial resistance (bradykinin [2]; iv 3.3 and 10 mg/kg): significantly inhibited
ED50 (SRS-A [6]; Felis catus, 5 min, intravenous, read-out: iv AED50): 16 mg/kg
Max. Increase in Resistance to Pulm. Inflation, mm Hg ± S.E. (SRS-A [6]; intravenous 33.0 mg/kg): 0 mm Hg
% Inhibition (SRS-A [6]; oral 10.0 mg/kg): 25%
Max. Increase in Resistance to Pulm. Inflation, mm Hg ± S.E. (SRS-A [6]; oral 10.0 mg/kg): 3.0 ± 0.9 mm Hg
% Inhibition (SRS-A [6]; oral 33.0 mg/kg): 98%
Max. Increase in Resistance to Pulm. Inflation, mm Hg ± S.E. (SRS-A [6]; oral 33.0 mg/kg): 0.1 ± 0.1 mm Hg
effect on SRS-A-induced bronchoconstriction (SRS-A [7]): inhibit
effect on bradykinin-induced bronchoconstriction (bradykinin [8]): inhibit
effect on serotonin-induced bronchoconstriction (serotonin [9]): ineffective
effect on acetylcholine-induced bronchoconstriction (acetylcholine [10]): ineffective

Cn1c(=O)c2[nH]cnc2n(C)c1=O [Aminophylline, aminophylline, reference compound]
% Inhibition (acetylcholine [11]): 70%
Peak Increase in Intracheal Pressure, mm Hg (acetylcholine [11]): 7 ± 1 mm Hg
effect against acetylcholine-induced bronchoconstriction (acetylcholine [11]): inhibition of acetylcholine responses

COc1ccc2c(c1)c1c(n2C(=O)c2ccccc2)CCCC1C(=O)O (stereo not shown) [e, 9-benzoyl-6-methoxy-1,2,3,4-tetrahydrocarbazole-4-carboxylic acid]
ED50 (SRS-A [3]): 1 mg/kg
Potency (Phenylbutazone = 1) (95% confidence limits) (SRS-A [3]): 18 (5.0-86)

Cc1ccc(C(=O)n2c3c(c4ccccc42)C(C(=O)O)CCC3)cc1 (stereo not shown) [d, 9-(4-toluoyl)-1,2,3,4-tetrahydrocarbazole-4-carboxylic acid]
ED50 (SRS-A [3]): 5 mg/kg
Potency (Phenylbutazone = 1) (95% confidence limits) (SRS-A [3]): 1.7 (0.6-6.8)

O=C(O)C1CCCc2c1c1ccccc1n2C(=O)c1ccccc1 (stereo not shown) [c, 9-benzoyl-1,2,3,4-tetrahydrocarbazole-4-carboxylic acid]
ED50 (SRS-A [3]): 0.3 mg/kg
Potency (Phenylbutazone = 1) (95% confidence limits) (SRS-A [3]): 16 (6.9-37)

O=C(O)C1CCc2c(c3ccccc3n2C(=O)c2ccccc2)C1 (stereo not shown) [a, 9-benzoyl-1,2,3,4-tetrahydrocarbazole-3-carboxylic acid]
ED50 (SRS-A [3]): 10 mg/kg
Potency (Phenylbutazone = 1) (95% confidence limits) (SRS-A [3]): 1.1 (0.53.8)

CC(=O)Oc1ccccc1C(=O)O [aspirin]
effect on SRS-A-induced bronchoconstriction (SRS-A [7]): inhibit
effect on bradykinin-induced bronchoconstriction (bradykinin [8]): inhibit
effect on serotonin-induced bronchoconstriction (serotonin [9]): ineffective
effect on acetylcholine-induced bronchoconstriction (acetylcholine [10]): ineffective
